Data published in patent US10165776B2, “Substituted pyrazolylpyrazole derivative and use of same as herbicide” (KYOYU AGRI CO., LTD., priority 2015, dated 2019).

Key:
Type in all cases: in vivo
Oryza sativa = test: Paddy herbicidal activity test, phytotoxicity to transplanted rice; conditions: rice transplanted at 2.0 leaf stage, 30 days at 30° C.
Experimental: (§1) Rice paddy soil was filled into a 1/10000 are pot followed by the addition of suitable amounts of water and chemical fertilizer, kneading, seeding with Echinochloa crus-galli, Monochoria vaginalis and Scirpus juncoides and maintaining in an irrigated state at a water depth of 3 cm. Wettable powders of Target Compound (I) shown in Table 1 prepared in compliance with the preparation examples were diluted with a suitable amount of water, rice plants in the 2.0 leaf stage were transplanted during 3.5 leaf stage of Echinochloa crus-galli, and treated by dropping in chemical in the prescribed amount per 10 are using a pipette. After treating for 30 days in a glass greenhouse at an average atmospheric temperature of 30° C., the herbicidal efficacy thereof was investigated. Evaluation of herbicidal efficacy was carried out by comparing growth inhibition rate (%) with an untreated group, while evaluation of phytotoxicity was carried out by comparing growth inhibition rate (%) with the state of a complete eradication group, and were evaluated at 11 levels indicated below.

Chenopodium album [1] = test: Farming soil treatment test; conditions: soil surface spray prior to weed growth, 30 days at 30° C.
Experimental: (§2) Field soil was filled into a 1/6000 are pot followed by seeding with Digitaria ciliaris, Chenopodium album and Amaranthus retroflexus and covering with soil. Wettable powders of compounds of formula (I) shown in Table 1 prepared in compliance with the preparation examples were diluted with water to the prescribed amount of chemical and uniformly sprayed onto each soil surface layer using 100 liters of sprayed water per 10 are prior to weed growth following seeding. After treating for 30 days in a glass greenhouse at an average atmospheric temperature of 30° C., the herbicidal efficacy thereof was investigated. Evaluation of herbicidal efficacy was carried out in the same manner as the above-mentioned Test Example 1.

Amaranthus retroflexus [2] = test: Farming soil treatment test; conditions: soil surface spray prior to weed growth, 30 days at 30° C.
Experimental: as §2

Digitaria ciliaris [3] = test: Farming soil treatment test; conditions: soil surface spray prior to weed growth, 30 days at 30° C.
Experimental: as §2

Chenopodium album [4] = test: Weed foliar treatment test (Test 3, 1.0 to 2.0 leaf stage); conditions: foliar spray at 1.0 to 2.0 leaf stage of Digitaria ciliaris, 3 weeks at 25° C.
Experimental: (§3) Soil was filled into a 1/6000 are pot followed by seeding with Digitaria ciliaris, Chenopodium album and Amaranthus retroflexus, covering with soil, and cultivating in a glass greenhouse at an average atmospheric temperature of 25° C. Wettable powders of Target Compound (I) shown in Table 1 prepared in compliance with the preparation examples were diluted with water to the prescribed amount of chemical and uniformly sprayed onto the weeds using 150 liters of sprayed water per 10 are when Digitaria ciliaris had grown to the 1.0 to 2.0 leaf stage. After treating for 3 weeks in a glass greenhouse at an average atmospheric temperature of 25° C., the herbicidal efficacy thereof was investigated. Evaluation of herbicidal efficacy was carried out in the same manner as the above-mentioned Test Example 1.

Amaranthus retroflexus [5] = test: as above; conditions: foliar spray at 1.0 to 2.0 leaf stage of Digitaria ciliaris, 3 weeks at 25° C.
Experimental: as §3

Digitaria ciliaris [6] = test: as above; conditions: foliar spray at 1.0 to 2.0 leaf stage of Digitaria ciliaris, 3 weeks at 25° C.
Experimental: as §3

Monochoria vaginalis = test: Paddy herbicidal activity test; conditions: irrigated pot, treated at 3.5 leaf stage of Echinochloa crus-galli, 30 days at 30° C.
Experimental: as §1

Echinochloa crus-galli = test: Paddy herbicidal activity test; conditions: irrigated pot, treated at 3.5 leaf stage of Echinochloa crus-galli, 30 days at 30° C.
Experimental: as §1

Scirpus juncoides = test: Paddy herbicidal activity test; conditions: irrigated pot, treated at 3.5 leaf stage of Echinochloa crus-galli, 30 days at 30° C.
Experimental: as §1

Galinsoga parviflora = test: Weed foliar treatment test (Test 4, 4.0 to 5.0 leaf stage); conditions: 10 g a.i./10 a; foliar spray at 4.0 to 5.0 leaf stage of Digitaria ciliaris (plant height 10 cm to 15 cm); 20 days at 25° C.
Experimental: (§4) Field soil was filled into a 1/4500 are pot followed by seeding with Digitaria ciliaris and Galinsoga parviflora, covering with soil and cultivating in a glass greenhouse at an average atmospheric temperature of 25° C. Wettable powders of Target Compound (I) shown in Table 1 prepared in compliance with the preparation examples were diluted with water to the prescribed amount of chemical and uniformly sprayed onto the weeds using 100 liters of sprayed water per 10 are when Digitaria ciliaris had grown to the 4.0 to 5.0 leaf stage (plant height: 10 cm to 15 cm). After treating for 20 days in a glass greenhouse at an average atmospheric temperature of 25° C., the herbicidal efficacy thereof was investigated. Evaluation of herbicidal efficacy was carried out in the same manner as the above-mentioned Test Example 1.

Digitaria ciliaris [7] = test: as above; conditions: 10 g a.i./10 a; foliar spray at 4.0 to 5.0 leaf stage of Digitaria ciliaris (plant height 10 cm to 15 cm); 20 days at 25° C.
Experimental: as §4

| Compound | phytotoxicity, Oryza sativa (Oryza sativa; 1 g a.i./10 a) | phytotoxicity, Oryza sativa (Oryza sativa; 5 g a.i./10 a) | herbicidal efficacy, Chenopodium album (Chenopodium album [1]; 5 g a.i./10 a) | herbicidal efficacy, Chenopodium album (Chenopodium album [1]; 10 g a.i./10 a) | herbicidal efficacy, Amaranthus retroflexus (Amaranthus retroflexus [2]; 5 g a.i./10 a) | herbicidal efficacy, Amaranthus retroflexus (Amaranthus retroflexus [2]; 10 g a.i./10 a) | herbicidal efficacy, Digitaria ciliaris (Digitaria ciliaris [3]; 5 g a.i./10 a) | herbicidal efficacy, Digitaria ciliaris (Digitaria ciliaris [3]; 10 g a.i./10 a) | herbicidal efficacy, Chenopodium album (Chenopodium album [4]; 5 g a.i./10 a) | herbicidal efficacy, Chenopodium album (Chenopodium album [4]; 10 g a.i./10 a) | herbicidal efficacy, Amaranthus retroflexus (Amaranthus retroflexus [5]; 5 g a.i./10 a) | herbicidal efficacy, Amaranthus retroflexus (Amaranthus retroflexus [5]; 10 g a.i./10 a) | herbicidal efficacy, Digitaria ciliaris (Digitaria ciliaris [6]; 5 g a.i./10 a) | herbicidal efficacy, Digitaria ciliaris (Digitaria ciliaris [6]; 10 g a.i./10 a) | herbicidal efficacy, Monochoria vaginalis (Monochoria vaginalis; 1 g a.i./10 a) | herbicidal efficacy, Monochoria vaginalis (Monochoria vaginalis; 5 g a.i./10 a) | herbicidal efficacy, Echinochloa crus-galli (Echinochloa crus-galli; 1 g a.i./10 a) | herbicidal efficacy, Echinochloa crus-galli (Echinochloa crus-galli; 5 g a.i./10 a) | herbicidal efficacy, Scirpus juncoides (Scirpus juncoides; 1 g a.i./10 a) | herbicidal efficacy, Scirpus juncoides (Scirpus juncoides; 5 g a.i./10 a) | also measured |
| --- | --- | --- | --- | --- | --- | --- | --- | --- | --- | --- | --- | --- | --- | --- | --- | --- | --- | --- | --- | --- | --- |
| N#Cc1cnn(-c2nn3c(c2Cl)CCCC3)c1NC(=O)Cc1ccccc1 [Compound 3] | 0 (0 (exponent): 0% to less than 10% (growth inhibition rate)) | 1 (1: 10% to less than 20%) | 9 (9: 90% to less than 100%) | 10 (10: 100%) | 9 (9: 90% to less than 100%) | 9 (9: 90% to less than 100%) | 9 (9: 90% to less than 100%) | 9 (9: 90% to less than 100%) | 10 (10: 100%) | 10 (10: 100%) | 9 (9: 90% to less than 100%) | 10 (10: 100%) | 10 (10: 100%) | 10 (10: 100%) | 9 (9: 90% to less than 100%) | 10 (10: 100%) | 9 (9: 90% to less than 100%) | 10 (10: 100%) | 9 (9: 90% to less than 100%) | 10 (10: 100%) | herbicidal efficacy, Galinsoga parviflora (Galinsoga parviflora): 10 (10: 100%); herbicidal efficacy, Digitaria ciliaris (Digitaria ciliaris [7]): 10 (10: 100%) |
| O=C(Cc1ccccc1)Nc1c([N+](=O)[O-])cnn1-c1nn2c(c1Cl)CCCC2 [Compound 5] | 1 (1: 10% to less than 20%) | 1 (1: 10% to less than 20%) | 9 (9: 90% to less than 100%) | 10 (10: 100%) | 9 (9: 90% to less than 100%) | 9 (9: 90% to less than 100%) | 9 (9: 90% to less than 100%) | 9 (9: 90% to less than 100%) | 10 (10: 100%) | 10 (10: 100%) | 10 (10: 100%) | 10 (10: 100%) | 10 (10: 100%) | 10 (10: 100%) | 10 (10: 100%) | 10 (10: 100%) | 10 (10: 100%) | 10 (10: 100%) | 9 (9: 90% to less than 100%) | 10 (10: 100%) | herbicidal efficacy, Galinsoga parviflora (Galinsoga parviflora): 10 (10: 100%); herbicidal efficacy, Digitaria ciliaris (Digitaria ciliaris [7]): 10 (10: 100%) |
